Measurements published in PMC3433420 (PLoS ONE, 2012).
Residues, ends and D or L forms follow the SMILES beside them.

Biological target: T1, PIK3R1-N SH2 domain (Homo sapiens, UniProt P27986)
T1 construct: thioredoxin; made in house; host or cells: E. coli BL21(DE3)pLysS
Assay: biochemical
Type: binding
Settings: high-confidence ErbB interactions

[1] = Protein PIK3R1-N, FP saturation binding, mean over replicate hits

T1 sequence (P27986 333-428 limits assumed): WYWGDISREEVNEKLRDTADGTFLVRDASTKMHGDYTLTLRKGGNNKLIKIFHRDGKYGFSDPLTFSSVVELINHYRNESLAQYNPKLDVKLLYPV

Row | SMILES | Kd [1] [µM] | Kd (protein PIK3R1-N, FP, mean of replicate hits) [µM]
1 | CC(C)C[C@H](NC(=O)[C@H](Cc1ccc(OP(=O)(O)O)cc1)NC(=O)[C@H](CCC(=O)O)NC(=O)[C@H](CCC(=O)O)NC(=O)[C@H](C)NC(=O)[C@@H](N)CC(=O)O)C(=O)N[C@H](C(=O)N1CCC[C@H]1C(=O)N[C@@H](CCC(N)=O)C(=O)N[C@@H](CCC(N)=O)C(=O)NCC(=O)N[C@@H](Cc1ccccc1)C(=O)N[C@@H](CC(=O)O)C(=O)O)C(C)C [ErbB2 1023 13-mer] (HELM PEPTIDE1{D.A.E.E.[O=C([C@H](Cc1ccc(OP(=O)(O)O)cc1)N[*:1])[*:2]].L.V.P.Q.Q.G.F.D}$$$$V2.0) | 15.8 | 
2 | CC(C)C[C@H](NC(=O)[C@H](CC(N)=O)NC(=O)[C@@H](N)CC(=O)O)C(=O)N[C@@H](Cc1ccc(O)cc1)C(=O)N[C@@H](Cc1ccc(OP(=O)(O)O)cc1)C(=O)N[C@@H](Cc1c[nH]c2ccccc12)C(=O)N[C@@H](CC(=O)O)C(=O)N[C@@H](CCC(N)=O)C(=O)N[C@@H](CC(=O)O)C(=O)N1CCC[C@H]1C(=O)N1CCC[C@H]1C(=O)N[C@@H](CCC(=O)O)C(=O)N[C@@H](CC(=O)O)C(=O)O [ErbB2 1222 13-mer] (HELM PEPTIDE1{D.N.L.Y.[O=C([C@H](Cc1ccc(OP(=O)(O)O)cc1)N[*:1])[*:2]].W.D.Q.D.P.P.E.D}$$$$V2.0) | 10.7 | 
3 | CSCC[C@H](NC(=O)[C@H](CCC(=O)O)NC(=O)[C@H](CCC(=O)O)NC(=O)[C@H](Cc1ccc(OP(=O)(O)O)cc1)NC(=O)CNC(=O)[C@H](CCC(N)=O)NC(=O)[C@H](CCC(=O)O)NC(=O)[C@@H](N)CO)C(=O)N[C@@H](CCCNC(=N)N)C(=O)N[C@@H](C)C(=O)N[C@@H](Cc1ccccc1)C(=O)N[C@@H](CCC(N)=O)C(=O)N[C@@H](CC(=O)O)C(=O)O [ErbB3 1289 13-mer] (HELM PEPTIDE1{S.E.Q.G.[O=C([C@H](Cc1ccc(OP(=O)(O)O)cc1)N[*:1])[*:2]].E.E.M.R.A.F.Q.D}$$$$V2.0) |  | 0.25
